Experimental data as given in US12570687B2, “Triterpenoid compounds, pharmaceutical compositions thereof, and their use for treating a nuclear receptor subfamily 4 group a member 1-mediated disease” (NUCMITO PHARMACEUTICALS COMPANY LIMITED, priority 2019, dated 2026).

What was measured:
Assay type in all cases: cell-based
[1] = system: A375 (malignant melanoma); test: MTT antiproliferative assay, A375; conditions: Homo sapiens, A-375, A375, 10 μM, 48 or 72 h, read-out: inhibition of cell growth, A375
Protocol: (§1) The antiproliferative activity of a test compound was determined in cell lines: MDA-MB-231 (breast cancer), HepG2 (liver cancer), SW620 (colon cancer), A375 (malignant melanoma), A431 (epidermoid carcinoma), A549 (lung adenocarcinoma), and HeLa ([…]). MDA-MB-231, HepG2, SW480, SW620, A375, and A431 cells were cultured in Dulbecco's modified Eagle's medium (DMEM) containing 10% fetal bovine serum (FBS). HeLa cells were cultured in MEM/EBSS (MEM) containing 10% FBS. A549 cells were maintained in Kaighn's modification of Ham's F-12 medium containing 10% FBS. The colorimetric MTT (3-(4,5-dimethylthiazol-2-yl)-2,5-diphenyltetrazolium bromide) assay was used to measure the cell viability of different cells following treatment with the test compound.
(§2) Briefly cells were seeded in a 96 well plate at a density of 2,000-5,000 cells/well. Following attachment, the cells were treated with the test compound in media at various concentrations ranging from 0.137 to 100 μM or at a single concentration of 10 μM. After the cells were incubated at 37° C. for 48 or 72 h, MTT (20 μL, 5 mg/mL in PBS) was added to each well and the cells were incubated for another 4 h at 37° C. The supernatant was removed carefully and 150 μL of DMSO was added to each well to dissolve the MTT formazan crystals. The plate was shaken for 15-20 min and the absorbance value of each well was determined using a multi-well plate reader at 490 nm. The wells treated with DMSO were taken as a vehicle control. Data were also obtained similarly for all the replicates and the percentage viability was determined with respect to the DMSO-treated cells. The results are summarized in Table 1 below, wherein A represents no less than 80% inhibition of cell growth at 10 μM; B represents no less than 50% but less than 80% inhibition of cell growth at 10 μM; C represents no less than 30% but less than 50% inhibition of cell growth at 10 μM; and D represents less than 30% inhibition of cell growth at 10 μM.

[2] = system: SW620 (colon cancer); test: MTT antiproliferative assay, SW620; conditions: Homo sapiens, SW-620, SW620, 10 μM, 48 or 72 h, read-out: inhibition of cell growth, SW620
Protocol: as §1, §2

[3] = system: HeLa (ovarian cancer); test: MTT antiproliferative assay, HeLa; conditions: Homo sapiens, 48 or 72 h, read-out: inhibition of cell growth, HELA
Protocol: as §1, §2

[4] = system: HepG2 (liver cancer); test: MTT antiproliferative assay, HepG2; conditions: Homo sapiens, HepG2, 10 μM, 48 or 72 h, read-out: inhibition of cell growth, HepG2
Protocol: as §1, §2

[5] = system: A431 (epidermoid carcinoma); test: MTT antiproliferative assay, A431; conditions: Homo sapiens, A-431, A431, 10 μM, 48 or 72 h, read-out: inhibition of cell growth, A431
Protocol: as §1, §2

[6] = system: MDA-MB-231 (breast cancer); test: MTT antiproliferative assay, MDA-MB-231; conditions: Homo sapiens, MDA-MB-231, 10 μM, 48 or 72 h, read-out: inhibition of cell growth, MDA-MB-231
Protocol: as §1, §2

[7] = system: A549 (lung adenocarcinoma); test: MTT antiproliferative assay, A549; conditions: Homo sapiens, A549, 10 μM, 48 or 72 h, read-out: inhibition of cell growth, A549
Protocol: as §1, §2

CO[C@@]1(C)C2=CC=C3[C@@](C)(CC[C@@]4(C)[C@@H]5C[C@](C)(C(=O)O)CC[C@]5(C)CC[C@]34C)C2=CC(=O)/C1=C\C#N [Compound A30, (2R,4aS,6aS,9S,10Z,12bR,14aS,14bR)-10-(cyanomethylidene)-9-methoxy-2,4a,6a,9,12b,14a-hexamethyl-11-oxo-1,2,3,4,4a,5,6,6a,9,10,11,12b,13,14,14a,14b-hexadecahydropicene-2-carboxylic acid]
inhibition at 10 µM [1]: 50 to 80%
inhibition at 10 µM [2]: ≥ 80%
inhibition at 10 µM [3]: ≥ 80%
inhibition at 10 µM [4]: ≥ 80%
inhibition at 10 µM [5]: ≥ 80%
inhibition at 10 µM [6]: ≥ 80%
inhibition at 10 µM [7]: 30 to 50%

CO[C@@]1(C)C2=CC=C3[C@@](C)(CC[C@@]4(C)[C@@H]5C[C@](C)(C(=O)O)CC[C@]5(C)CC[C@]34C)C2=CC(=O)/C1=C/C#N [Compound A31, (2R,4aS,6aS,9S,10E,12bR,14aS,14bR)-10-(cyanomethylidene)-9-methoxy-2,4a,6a,9,12b,14a-hexamethyl-11-oxo-1,2,3,4,4a,5,6,6a,9,10,11,12b,13,14,14a,14b-hexadecahydropicene-2-carboxylic acid]
inhibition at 10 µM [1]: 50 to 80%
inhibition at 10 µM [2]: ≥ 80%
inhibition at 10 µM [3]: ≥ 80%
inhibition at 10 µM [4]: 50 to 80%
inhibition at 10 µM [5]: 50 to 80%
inhibition at 10 µM [6]: ≥ 80%
inhibition at 10 µM [7]: 50 to 80%

COC(=O)[C@]1(C)CC[C@]2(C)CC[C@]3(C)C4=CC=C5C(=CC(=O)C(=O)C5(C)O)[C@]4(C)CC[C@@]3(C)[C@@H]2C1 (stereo partly drawn) [Compound A32, methyl (2R,4aS,6aS,12bR,14aS,14bR)-9-hydroxy-2,4a,6a,9,12b,14a-hexamethyl-10,11-dioxo-1,2,3,4,4a,5,6,6a,9,10,11,12b,13,14,14a,14b-hexadecahydropicene-2-carboxylate]
inhibition at 10 µM [1]: 50 to 80%
inhibition at 10 µM [2]: ≥ 80%
inhibition at 10 µM [3]: ≥ 80%
inhibition at 10 µM [4]: ≥ 80%
inhibition at 10 µM [5]: ≥ 80%
inhibition at 10 µM [6]: ≥ 80%
inhibition at 10 µM [7]: ≥ 80%

COC(=O)[C@]1(C)CC[C@]2(C)CC[C@]3(C)C4=CC=C5C(=CC(=O)/C(=C\C#N)C5(C)O)[C@]4(C)CC[C@@]3(C)[C@@H]2C1 (stereo partly drawn) [Compound A33, methyl (2R,4aS,6aS,10Z,12bR,14aS,14bR)-10-(cyanomethylidene)-9-hydroxy-2,4a,6a,9,12b,14a-hexamethyl-11-oxo-1,2,3,4,4a,5,6,6a,9,10,11,12b,13,14,14a,14b-hexadecahydropicene-2-carboxylate]
inhibition at 10 µM [1]: 50 to 80%
inhibition at 10 µM [2]: ≥ 80%
inhibition at 10 µM [3]: ≥ 80%
inhibition at 10 µM [4]: ≥ 80%
inhibition at 10 µM [5]: 50 to 80%
inhibition at 10 µM [6]: ≥ 80%
inhibition at 10 µM [7]: 30 to 50%

COC(=O)[C@]1(C)CC[C@]2(C)CC[C@]3(C)C4=CC=C5C(=CC(=O)/C(=C/C#N)C5(C)O)[C@]4(C)CC[C@@]3(C)[C@@H]2C1 (stereo partly drawn) [Compound A34, methyl (2R,4aS,6aS,10E,12bR,14aS,14bR)-10-(cyanomethylidene)-9-hydroxy-2,4a,6a,9,12b,14a-hexamethyl-11-oxo-1,2,3,4,4a,5,6,6a,9,10,11,12b,13,14,14a,14b-hexadecahydropicene-2-carboxylate]
inhibition at 10 µM [1]: 50 to 80%
inhibition at 10 µM [2]: ≥ 80%
inhibition at 10 µM [3]: ≥ 80%
inhibition at 10 µM [4]: ≥ 80%
inhibition at 10 µM [5]: 50 to 80%
inhibition at 10 µM [6]: ≥ 80%
inhibition at 10 µM [7]: 50 to 80%

COC(=O)[C@]1(C)CC[C@]2(C)CC[C@]3(C)C4=CC=C5C(=CC(=O)C(O)C5(C)O)[C@]4(C)CC[C@@]3(C)[C@@H]2C1 (stereo partly drawn) [Compound A35, methyl (2R,4aS,6aS,12bR,14aS,14bR)-9,10-dihydroxy-2,4a,6a,9,12b,14a-hexamethyl-11-oxo-1,2,3,4,4a,5,6,6a,9,10,11,12b,13,14,14a,14b-hexadecahydropicene-2-carboxylate]
inhibition at 10 µM [1]: 50 to 80%
inhibition at 10 µM [2]: ≥ 80%
inhibition at 10 µM [3]: ≥ 80%
inhibition at 10 µM [4]: ≥ 80%
inhibition at 10 µM [5]: ≥ 80%
inhibition at 10 µM [6]: ≥ 80%
inhibition at 10 µM [7]: ≥ 80%

COC(=O)[C@]1(C)CC[C@]2(C)CC[C@]3(C)C4=CC=C5C(=C/C(=C\C#N)C(=O)C5(C)O)[C@]4(C)CC[C@@]3(C)[C@@H]2C1 (stereo partly drawn) [Compound A37, methyl (2R,4aS,6aS,11E,12bR,14aS,14bR)-11-(cyanomethylidene)-9-hydroxy-2,4a,6a,9,12b,14a-hexamethyl-10-oxo-1,2,3,4,4a,5,6,6a,9,10,11,12b,13,14,14a,14b-hexadecahydropicene-2-carboxylate]
inhibition at 10 µM [1]: 30 to 50%
inhibition at 10 µM [2]: 50 to 80%
inhibition at 10 µM [3]: ≥ 80%
inhibition at 10 µM [4]: 30 to 50%
inhibition at 10 µM [5]: ≥ 80%
inhibition at 10 µM [6]: ≥ 80%
inhibition at 10 µM [7]: < 30%

CC12OCCOC1(O)C(=O)C=C1C2=CC=C2[C@@]1(C)CC[C@@]1(C)[C@@H]3C[C@](C)(C(=O)O)CC[C@]3(C)CC[C@]21C (stereo partly drawn) [Compound A43, (6bS,8aS,11R,12aR,12bS,14aR)-16a-hydroxy-4a,6b,8a,11,12b,14a-hexamethyl-16-oxo-2,3,4a,6b,7,8,8a,9,10,11,12,12a,12b,13,14,14a,16,16a-octadecahydropiceno[3,4-b][1,4]dioxine-11-carboxylic acid]
inhibition at 10 µM [1]: < 30%
inhibition at 10 µM [2]: < 30%
inhibition at 10 µM [3]: < 30%
inhibition at 10 µM [4]: < 30%
inhibition at 10 µM [5]: < 30%
inhibition at 10 µM [6]: < 30%
inhibition at 10 µM [7]: < 30%

CO[C@]1(C)C(=O)C(=O)C=C2C1=CC=C1[C@@]2(C)CC[C@@]2(C)[C@@H]3C[C@](C)(C(=O)NCCO)CC[C@]3(C)CC[C@]12C [Compound A44, (2R,4aS,6aS,9S,12bR,14aS,14bR)—N-(2-hydroxyethyl)-9-methoxy-2,4a,6a,9,12b,14a-hexamethyl-10,11-dioxo-1,2,3,4,4a,5,6,6a,9,10,11,12b,13,14,14a,14b-hexadecahydropicene-2-carboxamide]
inhibition at 10 µM [1]: 30 to 50%
inhibition at 10 µM [2]: 50 to 80%
inhibition at 10 µM [3]: ≥ 80%
inhibition at 10 µM [4]: ≥ 80%
inhibition at 10 µM [5]: ≥ 80%
inhibition at 10 µM [6]: ≥ 80%
inhibition at 10 µM [7]: ≥ 80%

CO[C@]1(C)C(=O)C(=O)C=C2C1=CC=C1[C@@]2(C)CC[C@@]2(C)[C@@H]3C[C@](C)(C(=O)NO)CC[C@]3(C)CC[C@]12C [Compound A45, (2R,4aS,6aS,9S,12bR,14aS,14bR)—N-Hydroxy-9-methoxy-2,4a,6a,9,12b,14a-hexamethyl-10,11-dioxo-1,2,3,4,4a,5,6,6a,9,10,11,12b,13,14,14a,14b-hexadecahydropicene-2-carboxamide]
inhibition at 10 µM [1]: 50 to 80%
inhibition at 10 µM [2]: 50 to 80%
inhibition at 10 µM [3]: ≥ 80%
inhibition at 10 µM [4]: ≥ 80%
inhibition at 10 µM [5]: ≥ 80%
inhibition at 10 µM [6]: ≥ 80%
inhibition at 10 µM [7]: ≥ 80%

CO[C@@]1(C)C2=CC=C3[C@@](C)(CC[C@@]4(C)[C@@H]5C[C@](C)(C(=O)O)CC[C@]5(C)CC[C@]34C)C2=CC2(O)OCCN=C21 (stereo partly drawn) [Compound A46, (2R,4aS,6aS,9S,14bR,16aS,16bR)-13a-hydroxy-9-methoxy-2,4a,6a,9,14b,16a-hexamethyl-2,3,4,4a,5,6,6a,9,11,12,13a,14b,15,16,16a,16b-hexadecahydro-1H-piceno[2,3-b][1,4]oxazine-2-carboxylic acid]
inhibition at 10 µM [1]: 30 to 50%
inhibition at 10 µM [2]: 50 to 80%
inhibition at 10 µM [3]: ≥ 80%
inhibition at 10 µM [4]: ≥ 80%
inhibition at 10 µM [5]: ≥ 80%
inhibition at 10 µM [6]: 50 to 80%
inhibition at 10 µM [7]: 50 to 80%

CO[C@@]1(C)C2=CC=C3[C@@](C)(CC[C@@]4(C)[C@@H]5C[C@](C)(C(=O)NO)CC[C@]5(C)CC[C@]34C)C2=CC2(O)OCCN=C21 (stereo partly drawn) [Compound A47, (2R,4aS,6aS,9S,14bR,16aS,16bR)—N,13a-dihydroxy-9-methoxy-2,4a,6a,9,14b,16a-hexamethyl-2,3,4,4a,5,6,6a,9,11,12,13a,14b,15,16,16a,16b-hexadecahydro-1H-piceno[2,3-b][1,4]oxazine-2-carboxamide]
inhibition at 10 µM [1]: 30 to 50%
inhibition at 10 µM [2]: 50 to 80%
inhibition at 10 µM [3]: ≥ 80%
inhibition at 10 µM [4]: ≥ 80%
inhibition at 10 µM [5]: ≥ 80%
inhibition at 10 µM [6]: ≥ 80%
inhibition at 10 µM [7]: ≥ 80%
